Test results as given in article PMC6920801, “Conformation and Aggregation of Human Serum Albumin in the Presence of Green Tea Polyphenol (EGCg) and/or Palmitic Acid” (Biomolecules, 2019).

Biological target: T1, Human serum albumin (HSA) (Homo sapiens, UniProt P02768)
T1 construct: gene ALB; fatty acid-free albumin from human serum; CPM-labelled at Cys-34 for FRET
Assay: FRET (Trp-214 to CPM-Cys-34) titration with one-site fit; Trp fluorescence quenching, CD, DLS
Format: binding
From the text: FRET (Trp-214 to CPM-Cys-34) titration with one-site fit; Trp fluorescence quenching, CD, DLS on Human serum albumin (HSA) | The effect was dose dependent and fit a one binding site isotherm, with a calculated maximum change in distance

T1 sequence (P02768 25-609): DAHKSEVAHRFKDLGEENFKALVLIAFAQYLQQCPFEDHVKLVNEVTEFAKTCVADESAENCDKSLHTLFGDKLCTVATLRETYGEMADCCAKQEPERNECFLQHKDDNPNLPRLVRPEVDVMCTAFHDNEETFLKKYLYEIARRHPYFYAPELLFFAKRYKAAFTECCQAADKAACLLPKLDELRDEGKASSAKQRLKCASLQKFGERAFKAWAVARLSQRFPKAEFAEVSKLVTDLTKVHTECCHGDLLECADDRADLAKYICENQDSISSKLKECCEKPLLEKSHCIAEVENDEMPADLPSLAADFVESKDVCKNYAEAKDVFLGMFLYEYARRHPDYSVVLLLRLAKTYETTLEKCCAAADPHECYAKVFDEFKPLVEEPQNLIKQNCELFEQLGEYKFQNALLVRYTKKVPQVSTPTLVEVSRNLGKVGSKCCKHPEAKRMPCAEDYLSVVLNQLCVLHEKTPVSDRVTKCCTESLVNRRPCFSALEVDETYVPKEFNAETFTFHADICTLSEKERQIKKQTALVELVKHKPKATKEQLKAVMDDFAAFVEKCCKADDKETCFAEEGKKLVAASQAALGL

## O=C(O[C@@H]1Cc2c(O)cc(O)cc2O[C@@H]1c1cc(O)c(O)c(O)c1)c1cc(O)c(O)c(O)c1 [EGCg, (-)-epigallocatechin gallate]
  EC50: 3.7 µM
